Experiments:
[1] = tested on: KARPAS-1106P (B-Cell Non-Hodgkin's Lymphoma); assay: Bliss excess, mean over the matrix (fraction); higher = more synergy
Procedure, shortened: (§1)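 After 24 hours at 37°C and 5% CO2 in 1536-well plates, cells in DMEM/F12 or RPMI plus 10% FBS received two-drug dose matrices for 72 hours. Viability came from CellTiter-Glo 2.0 luminescence and was scaled as inhibition, anchored at 0 by vehicle wells and at 1 by blank wells. Combination Emax is taken as the second-highest inhibition in the matrix, and Bliss excess as the observed combination effect less EA + EB − EA·EB, with EA and EB the single-agent effects.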

[2] = tested on: SW1783 (Low Grade Glioma); assay: as above
Procedure, shortened: as §1

[3] = tested on: NCI-H2369 (Mesothelioma); assay: as above
Procedure, shortened: as §1

[4] = tested on: J82 (Bladder Carcinoma); assay: as above
Procedure, shortened: as §1

[5] = tested on: COR-L95 (Small Cell Lung Carcinoma); assay: as above
Procedure, shortened: as §1

[6] = tested on: TGBC24TKB (Biliary Tract Carcinoma); assay: as above
Procedure, shortened: as §1

[7] = tested on: SW1990 (Pancreatic Carcinoma); assay: as above
Procedure, shortened: as §1

[8] = tested on: OCI-AML2 (Acute Myeloid Leukemia); assay: as above
Procedure, shortened: as §1

[9] = tested on: ES7 (Ewing's Sarcoma); assay: as above
Procedure, shortened: as §1

[10] = tested on: DB (B-Cell Non-Hodgkin's Lymphoma); assay: as above
Procedure, shortened: as §1

[11] = tested on: NCI-H1694 (Small Cell Lung Carcinoma); assay: as above
Procedure, shortened: as §1

[12] = tested on: RH-1 (Ewing's Sarcoma); assay: combination Emax (second highest fraction inhibited in the dose matrix, 72 h); higher = more inhibition; extreme values may be limits of the assay
Procedure, shortened: as §1

[13] = tested on: U-266 (Plasma Cell Myeloma); assay: as above
Procedure, shortened: as §1

[14] = tested on: KARPAS-1106P (B-Cell Non-Hodgkin's Lymphoma); assay: as above
Procedure, shortened: as §1

[15] = tested on: TE-5 (Esophageal Squamous Cell Carcinoma); assay: as above
Procedure, shortened: as §1

[16] = tested on: SUIT-2 (Pancreatic Carcinoma); assay: as above
Procedure, shortened: as §1

[17] = tested on: EM-2 (Chronic Myelogenous Leukemia); assay: as above
Procedure, shortened: as §1

[18] = tested on: ES7 (Ewing's Sarcoma); assay: as above
Procedure, shortened: as §1

[19] = tested on: NCI-H1694 (Small Cell Lung Carcinoma); assay: as above
Procedure, shortened: as §1

[20] = tested on: KARPAS-620 (Plasma Cell Myeloma); assay: as above
Procedure, shortened: as §1
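Wherever Bliss excess, mean over the matrix is given: after 72 h of two-drug dosing.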

SMILES | Bliss excess [1] | Bliss excess [2] | Bliss excess [3] | Bliss excess [4] | Bliss excess [5] | Bliss excess [6] | Bliss excess [7] | Bliss excess [8] | Bliss excess [9] | Bliss excess [10] | Bliss excess [11] | combination Emax [12] | combination Emax [13] | combination Emax [14] | combination Emax [15] | combination Emax [16] | combination Emax [17] | combination Emax [18] | combination Emax [19] | combination Emax [20]
COc1cccc(OCCCN)c1-c1cc(Nc2cnc(C#N)cn2)n[nH]1 [Prexasertib] + C=CCn1c(=O)c2cnc(Nc3ccc(N4CCN(C)CC4)cc3)nc2n1-c1cccc(C(C)(C)O)n1 [AZD1775] (first compound max 1 µM, partner max 1 µM) | -0.0047 | -0.0053 | -0.0074 | 0.096 | -0.0187 | 0.0429 | -0.0061 | 0.0655 | 0.0597 | 0.071 | 0.13 | 1 | 0.77 | 0.949 | 0.625 | 0.707 | 0.986 | 0.966 | 0.932 | 0.904
CCN(CCO)CCCOc1ccc2c(Nc3cc(CC(=O)Nc4cccc(F)c4)[nH]n3)ncnc2c1 [AZD2811] + C=CCn1c(=O)c2cnc(Nc3ccc(N4CCN(C)CC4)cc3)nc2n1-c1cccc(C(C)(C)O)n1 [AZD1775] (first compound max 1 µM, partner max 1 µM) | -0.0241 | -0.073 | -0.0434 | 0.0001 | -0.0225 | -0.0717 | -0.0403 | 0.0077 | -0.0468 | 0.0251 | 0.0223 | 1 | 0.605 | 0.842 | 0.313 | 0.625 | 0.96 | 0.783 | 0.374 | 0.327
CC(=O)c1c(C)c2cnc(Nc3ccc(N4CCNCC4)cn3)nc2n(C2CCCC2)c1=O [Palbociclib] + Cn1cnc2c(F)c(Nc3ccc(Br)cc3Cl)c(C(=O)NOCCO)cc21 [Selumetinib] (first compound max 10 µM, 7x7, partner max 10 µM) | 0.0399 | -0.0447 | -0.0483 | -0.0538 | -0.0843 | 0.0495 | -0.0228 | 0.0685 | 0.0067 | -0.0167 | -0.0989 | 0.228 | 0.648 | 0.601 | 0.213 | 0.452 | 0.459 | 0.609 | 0.306 | 0.631
Cc1nc(Nc2ncc(C(=O)Nc3c(C)cccc3Cl)s2)cc(N2CCN(CCO)CC2)n1 [Dasatinib] + CC(=O)Nc1cccc(-n2c(=O)n(C3CC3)c(=O)c3c(Nc4ccc(I)cc4F)n(C)c(=O)c(C)c32)c1 [Trametinib] (first compound max 2 µM, 7x7, partner max 1 µM) | 0.122 | -0.0712 | -0.0535 | -0.0068 | -0.0318 | 0.106 | 0.0235 | 0.0363 | -0.0112 | -0.0005 | -0.0311 | 0.08 | 0.832 | 0.741 | 0.322 | 0.671 | 0.861 | 0.294 | 0.111 | 0.645
CN(CCO)CC[C@H](CSc1ccccc1)Nc1ccc(S(=O)(=O)NC(=O)c2ccc(N3CCC([C@@H](O)c4ccccc4-c4ccc(Cl)cc4)CC3)cc2)cc1S(=O)(=O)C(F)(F)F [AZD4320] + Cn1cnc2c(F)c(Nc3ccc(Br)cc3Cl)c(C(=O)NOCCO)cc21 [Selumetinib] (first compound max 1 µM, 7x7, partner max 3 µM) | -0.0007 | -0.0419 | 0.0216 | -0.0144 | -0.0067 | 0.0369 | 0.0357 | 0.0207 | 0.026 | -0.0482 | 0.0042 | 0.854 | 0.938 | 0.769 | 0.597 | 0.406 | 0.971 | 0.984 | 0.957 | 1
CN(CCO)CC[C@H](CSc1ccccc1)Nc1ccc(S(=O)(=O)NC(=O)c2ccc(N3CCC([C@@H](O)c4ccccc4-c4ccc(Cl)cc4)CC3)cc2)cc1S(=O)(=O)C(F)(F)F [AZD4320] + C1CN(CCC1(C(=O)N[C@@H](CCO)C2=CC=C(C=C2)Cl)N)C3=NC=NC4=C3C=CN4 [Capivasertib] (first compound max 1 µM, 7x7, partner max 3 µM) | -0.0259 | -0.119 | 0.0332 | -0.031 | -0.0203 | 0.0015 | -0.049 | -0.0333 | 0.0083 | -0.0196 | 0.0202 | 0.394 | 0.577 | 0.16 | 0.321 | 0.074 | 0.98 | 0.762 | 0.763 | 1
COc1nnc2ccc(N3CCC(c4ccc(OCCN5CCN(C)C(=O)[C@H]5C)cc4)CC3)nn12 [AZD5153] + CC1(C)CCC(CN2CCN(c3ccc(C(=O)NS(=O)(=O)c4ccc(NCC5CCOCC5)c([N+](=O)[O-])c4)c(Oc4cnc5[nH]ccc5c4)c3)CC2)=C(c2ccc(Cl)cc2)C1 [Venetoclax] (first compound max 1 µM, 7x7, partner max 1 µM) | -0.0308 | -0.0347 | -0.0641 | -0.0672 | 0.0382 | -0.0456 | -0.0448 | -0.0422 | -0.0694 | -0.0114 | 0.0045 | 0.334 | 0.272 | 0.761 | 0.412 | 0.371 | 0.918 | 0.565 | 0.551 | 0.927
Cn1cnc2c(F)c(Nc3ccc(Br)cc3Cl)c(C(=O)NOCCO)cc21 [Selumetinib] + C[C@@H]1COCCN1C2=NC(=NC(=C2)C3(CC3)[S@](=N)(=O)C)C4=C5C=CNC5=NC=C4 [AZD6738] (first compound max 10 µM, 7x7, partner max 10 µM) | -0.0007 | -0.103 | -0.0338 | 0.0262 | -0.0778 | 0.0704 | -0.0653 | 0.0141 | -0.0585 | -0.0353 | -0.0037 | 0.899 | 0.717 | 0.648 | 0.464 | 0.386 | 0.954 | 0.777 | 0.728 | 0.935
